“Also recorded” adds a separate entry of the source. *1 amine or outer side, *2 acyl side, *3 side chain or, on linkers, in order; H or OH if unused. Where a SMILES comes first, the peptide text is derived from it. [ ]: non-standard residue; d: D form. X1 = O=C(Cc1cccc(/N=N/c2cccc(CN[*:1])c2)c1)[*:2]
Tests used:
PD-1/PD-L1 = conditions: read-out: IC50, PD-1/PD-L1 inhibition of BMS-1; cited from earlier work
Excerpt: Photo-switchable peptides that have the potential to be switched “on” and “off” through structural changes, present an opportunity for externally controlled immune checkpoint inhibitors.

[1] = tested on: PD-1/PD-L1 interaction between Jurkat-Lucia TCR-hPD-1 and Raji-APC PD-L1 cells; assay: PD-1/PD-L1 immune checkpoint blockade cell-based assay (InvivoGen), luciferase read-out; parameters: species or system human; conditions: Jurkat/Raji co-culture, 6 h at 37 °C, luminescence; 1 tested as cis isomer (irradiated at 365 nm); triplicate; brackets = 95% CI
Protocol: Fig. 3 (A) HTRF assay with PD-1/PD-L1 and peptides CLP003, cis1 And trans1. (B) PD-1/PD-L1 immune checkpoint blockade assay (Invivogen). Increased luminescence implies PD-1/PD-L1 inhibition between modified Jurkat and Raji cells. Errors are SEM, performed in triplicate. Representative examples of n = 3.
There was concern that during the cellular assay incubation at 37 °C may result in the azobenzene modified peptide relaxing back to the trans isomer. To determine whether 1 was thermally stable to continue with cellular assays, 1 was incubated at 37 °C for 8 h after irradiation at 365 nm for 15 minutes in buffer. […] To explore the activity of 1 in a cellular context, an immune checkpoint blockade assay was performed. The cell-based assay (InvivoGen) consists of Jurkat T cells that are engineered to express luciferase via T cell receptor (TCR) signalling and Raji cells engineered to express PD-L1 on the cell surface. If PD-L1 is bound to PD-1, the luciferase expression is inhibited. […] As such, luciferase activity directly correlates to the PD-1/PD-L1 interaction, measured by luminescence following luciferin addition. […]
The assay was performed following the manufacturer’s protocol. […] The plate was read using a CLARIOstar (BMG Labtech) microplate reader and used following manufacturer’s protocols, reading luminescence at a 4 s start time and 0.1 s […]

PD-1/PD-L1 interaction = molecular target: T1, PD-1/PD-L1 interaction (Homo sapiens, UniProt Q9NZQ7); assay: PD-1/PD-L1 HTRF binding assay (Cisbio); conditions: for IC50: HTRF, 1 h at room temperature, three parameter logistic fit, brackets = 95% confidence interval, read-out: IC50, inhibition of PD-1/PD-L1 (HTRF); for IC50 / Alanine scan of CLP003, inhibition of PD-1/PD-L1 (HTRF) at single concentration: triplicate; for Alanine scan of CLP003, inhibition of PD-1/PD-L1 (HTRF) at single concentration: peptides screened at 1 mM in europium detection buffer, representative of n = 3
T1 construct: purchased Cisbio
T1 sequence (Q9NZQ7 19-238 limits assumed): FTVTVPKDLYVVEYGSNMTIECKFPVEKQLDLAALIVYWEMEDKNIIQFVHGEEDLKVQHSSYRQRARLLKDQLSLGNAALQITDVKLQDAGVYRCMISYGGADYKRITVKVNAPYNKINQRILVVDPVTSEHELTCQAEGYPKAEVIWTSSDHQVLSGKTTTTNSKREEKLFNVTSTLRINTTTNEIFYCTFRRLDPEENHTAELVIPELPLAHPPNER
Protocol: All peptides were screened at 1 mM in europium detection buffer, BMS-1 (10 μM) was the control, the positive control contained tagged PD-L1 and tagged PD-1, the negative control contained tagged PD-L1 only. Errors are SEM, performed in triplicate. Representative example of n = 3. (B) Example azobenzene modified peptide, peptide 1, predicted to be unstructured in the trans isomer and a turn motif in the cis isomer. Structures predicted with RFAllAtom and Maestro. The arrows between residues in the cis conformation implies the N to C direction. (C) The analytical HPLC traces (254 nm) showing pre-irradiated (red), irradiated at 365 nm for 20 min (blue) and a co-injection of the two samples (green). (D) UV-Vis spectra of 1. […] Post irradiation, and after up to 6 hours in the dark characteristic maxima for the cis isomer at 450 nm is observed. (E) Absorbance at 330 nm over 10 cycles of photoisomerization of peptide 1 after 20 min irradiation at 365 nm, and then isomerisation for 20 min exposed to white light. […]
6. PD-1/PD-L1 HTRF binding assay
This assay was purchased from CisBio and was performed following the manufacturer’s protocol. Tag1-PD-L1 and Tag2-PD-1 was diluted 40-fold from the stock solution with PPI-Europium detection buffer. Anti-Tag1 Eu Cryptate reagent and Anti-Tag2 XL665 antibody was diluted 50-fold from the stock solution with PPI-Europium detection buffer. HTRF 96-well low volume white plate was used. The samples were made to the desired concentration and 2 µL was pipetted into the well. The 4 µL of Tag-1-PD-L1 solution (25 nM) was added, followed by 4 µL of Tag2-PD-1 solution (250 nM). 1X Anti-Tag1 Eu Cryptate reagent solution (25 nM|) and 1X Anti-Tag2 XL665 antibody solution (250 nM) were pre-mixed prior to dispensing 10 µL into the well, for a total volume of 20 µL. The plate was sealed and incubated for 1 hour at room temperature. Samples were analysed in triplicate. Once incubated, the plate was read using a CLARIOstar (BMG Labtech) microplate reader following manufacturer’s protocols for time resolved fluorescence (excitation filter EX-TR, emission filters 620 (10) nm, 665 (10) nm, dichoric mirror LP-TR, integration delay (lag time) 60 µs, integration time 400 µs, number of flashes 200, gain for white plate 2500).
The emission ratio was calculated for each well was calculated with the following equation:
Ratio = 665 nm Intensity […]
The “specific signal” (ΔR) is obtained by subtracting the background from the signal of each […]
∆R = RatioSample ‒ Ratiobackground […]
interaction. The data was fit to a three parameter logistic regression model with resulting R2 […]
On the day of analysis Raji-APC-nPD-L1 cell suspension ~100,000
(90 µL) was added to a 96 well plate containing test sample (1.8 µL), followed by Jurkat-Lucia TCR-hPD-1 cell suspension of ~200,000 (90 µL). The plate was incubated at 37 °C in a CO2 incubator for 6 hours. The co-cultured supernatant was transferred to 96-well clear bottomed […]
white plate. […]

PD-L1 = conditions: cited from earlier work
Excerpt: To determine where to insert AMPP, alanine scanning mutagenesis highlighted which amino acids were essential for inhibition using a homogenous time-resolved fluorescence (HTRF) binding assay (Cisbio).[38] From this Tyr5 and Trp7 were highlighted as being […] for inhibition (Fig. 2A). […] Photo-switchable peptides that have the potential to be switched “on” and “off” through structural changes, present an opportunity for externally controlled immune checkpoint inhibitors.

[2] = Thermal stability of 1 at 37 °C, analytical HPLC; format: physicochemical; conditions: after irradiation at 365 nm for 15 min, 1 mg/mL in IMDM with 10% FBS, Pen-Strep and Normocin, analytical HPLC every hour
Protocol: There was concern that during the cellular assay incubation at 37 °C may result in the azobenzene modified peptide relaxing back to the trans isomer. To determine whether 1 was thermally stable to continue with cellular assays, 1 was incubated at 37 °C for 8 h after irradiation at 365 nm for 15 minutes in buffer. […] To explore the activity of 1 in a cellular context, an immune checkpoint blockade assay was performed. The cell-based assay (InvivoGen) consists of Jurkat T cells that are engineered to express luciferase via T cell receptor (TCR) signalling and Raji cells engineered to express PD-L1 on the cell surface. If PD-L1 is bound to PD-1, the luciferase expression is inhibited. If the PD-1/PD-L1 interaction is inhibited, TCR signalling causes luciferase expression. As such, luciferase activity directly correlates to the PD-1/PD-L1 interaction, measured by luminescence following luciferin addition. […]
Figure 6 a) The analytical HPLC traces of 6 reading at 214 nm top: after irradiation at 365 nm for 20 minutes showing predominantly the cis isomer (74:26) bottom: after being exposed for 20 minutes of ambient light showing predominantly the […]
This assay was purchased from CisBio and was performed following the manufacturer’s protocol. […] Samples were analysed in triplicate. […]
The emission ratio was calculated for each well was calculated with the following equation: […]

Row | EC50 [1] | IC50 (PD-1/PD-L1 interaction) | Alanine scan of CLP003, inhibition of PD-1/PD-L1 (HTRF) at single concentration (PD-1/PD-L1 interaction) | SMILES | also measured
1 | 3990 nM | – | – | COc1cc(OCc2cccc(-c3ccccc3)c2C)cc(OC)c1CN1CCCC[C@H]1C(=O)O [BMS-1, reference compound] | IC50 (PD-1/PD-L1): 76 nM
2 | – | 4680 nM | – | CC(=O)N[C@@H](Cc1c[nH]c2ccccc12)C(=O)N[C@@H](Cc1c[nH]cn1)C(=O)N[C@@H](Cc1ccccc1)C(=O)N[C@@H](CO)C(=O)N[C@@H](Cc1ccc(O)cc1)C(=O)N[C@@H](CC(N)=O)C(=O)N[C@@H](Cc1c[nH]c2ccccc12)C(=O)N[C@@H](CCCNC(=N)N)C(=O)N[C@@H](Cc1c[nH]c2ccccc12)C(=O)N[C@@H](CC(C)C)C(=O)N1CCC[C@H]1C(=O)N1CCC[C@H]1C(N)=O [CLP003, reference compound] (Ac-WHFSYNWRWLPP-NH2) | Kd (PD-L1): 117 ± 80 nM
3 | – | 25 nM | inhibiting PD-1/PD-L1 | CC(=O)N[C@@H](Cc1c[nH]c2ccccc12)C(=O)N[C@@H](Cc1c[nH]cn1)C(=O)N[C@@H](Cc1ccccc1)C(=O)N[C@@H](CO)C(=O)N[C@@H](Cc1ccc(O)cc1)C(=O)N[C@@H](CC(N)=O)C(=O)N[C@@H](C)C(=O)N[C@@H](CCCNC(=N)N)C(=O)N[C@@H](Cc1c[nH]c2ccccc12)C(=O)N[C@@H](CC(C)C)C(=O)N1CCC[C@H]1C(=O)N1CCC[C@H]1C(N)=O [W7A] (Ac-WHFSYNARWLPP-NH2) | –
4 | – | 52 nM | inhibiting PD-1/PD-L1 | CC(=O)N[C@@H](Cc1c[nH]c2ccccc12)C(=O)N[C@@H](Cc1c[nH]cn1)C(=O)N[C@@H](Cc1ccccc1)C(=O)N[C@@H](CO)C(=O)N[C@@H](C)C(=O)N[C@@H](CC(N)=O)C(=O)N[C@@H](Cc1c[nH]c2ccccc12)C(=O)N[C@@H](CCCNC(=N)N)C(=O)N[C@@H](Cc1c[nH]c2ccccc12)C(=O)N[C@@H](CC(C)C)C(=O)N1CCC[C@H]1C(=O)N1CCC[C@H]1C(N)=O [Y5A] (Ac-WHFSANWRWLPP-NH2) | –
5 | 5580 nM | – | – | CC(=O)N[C@@H](Cc1c[nH]c2ccccc12)C(=O)N[C@@H](Cc1c[nH]cn1)C(=O)N[C@@H](Cc1ccccc1)C(=O)N[C@@H](CO)C(=O)N[C@@H](Cc1ccc(O)cc1)C(=O)N[C@@H](CC(N)=O)C(=O)NCc1cccc(/N=N/c2cccc(CC(=O)N[C@@H](CCCNC(=N)N)C(=O)N[C@@H](Cc3c[nH]c4ccccc34)C(=O)N[C@@H](CC(C)C)C(=O)N3CCC[C@H]3C(=O)N3CCC[C@H]3C(N)=O)c2)c1 [compound 1] (Ac-WHFSYN[X1]RWLPP-NH2) | Inhibition of PD-1/PD-L1 (HTRF), trans isomer (PD-1/PD-L1 interaction; sample left in the dark (trans isomer), at up to 100 μM, detection buffer with 5% DMSO): no appreciable inhibition; Thermal stability at 37 °C over 8 h (degradation / isomer state) [2]: no degradation while remaining predominantly the cis isomer; also recorded: no observable change

Reference: PMC11293026, “Light-activated azobenzene peptide inhibitor of the PD-1/PD-L1 interaction” (Chemical Communications (Cambridge, England), 2024)
